{
  "source": "paper PMC5218480",
  "about": "(PLoS ONE, 2017)",
  "system": "MV-4-11 cells",
  "test": "Gene expression microarray analysis (Affymetrix PrimeView) and GSEA",
  "type": "cell-based, human",
  "design": "RFU PODN (11730768_x_at) / Fold change /veh PODN (11730768_x_at) / RFU LINC00158 (11744669_a_at) / Fold change /veh LINC00158 (11744669_a_at) / RFU DUSP10 (11751237_a_at) / Fold change /veh DUSP10 (11751237_a_at) / RFU ID3 (11757404_x_at) / Fold change /veh ID3 (11757404_x_at) / RFU PLEKHG5 (11737974_s_at) / Fold change /veh PLEKHG5 (11737974_s_at) / RFU LRRC4B (11730491_at) / Fold change /veh LRRC4B (11730491_at) / RFU GIMAP4 (11747438_a_at) / Fold change /veh GIMAP4 (11747438_a_at) / RFU KRT8 (11758183_x_at) / Fold change /veh KRT8 (11758183_x_at) / RFU CNN1 (11734310_a_at) / Fold change /veh CNN1 (11734310_a_at) / RFU VPS37D (11726825_at) / Fold change /veh VPS37D (11726825_at) / RFU C10orf10 (11716522_x_at) / Fold change /veh C10orf10 (11716522_x_at) / RFU KIR2DL2 /// KIR2DL4 /// KIR2DL5A /// KIR2DL5B /// KIR2DS1 /// KIR2DS2 /// KIR2DS3 /// KIR2DS4 /// KIR3DL3 /// KIR3DL3 /// KIR3DS1 (11738374_at) / Fold change /veh KIR2DL2 /// KIR2DL4 /// KIR2DL5A /// KIR2DL5B /// KIR2DS1 /// KIR2DS2 /// KIR2DS3 /// KIR2DS4 /// KIR3DL3 /// KIR3DL3 /// KIR3DS1 (11738374_at) / RFU C1QL1 (11718748_at) / Fold change /veh C1QL1 (11718748_at) / RFU TMPRSS4 (11747572_a_at) / Fold change /veh TMPRSS4 (11747572_a_at) / RFU HAMP (11756126_x_at) / Fold change /veh HAMP (11756126_x_at) / RFU RNFT2 (11725882_a_at) / Fold change /veh RNFT2 (11725882_a_at) / RFU NR4A2 (11747474_a_at) / Fold change /veh NR4A2 (11747474_a_at) / RFU ABCC12 (11746883_a_at) / Fold change /veh ABCC12 (11746883_a_at) / RFU TMEM136 (11760407_x_at) / Fold change /veh TMEM136 (11760407_x_at) / RFU CLDN22 /// WWC2 (11732394_at) / Fold change /veh CLDN22 /// WWC2 (11732394_at) / RFU HLA-DPB1 (11760878_x_at) / Fold change /veh HLA-DPB1 (11760878_x_at) / RFU SPINT1 (11716480_a_at) / Fold change /veh SPINT1 (11716480_a_at) / RFU GAP43 (11754022_s_at) / Fold change /veh GAP43 (11754022_s_at) / RFU A4GNT (11735810_at) / Fold change /veh A4GNT (11735810_at) / RFU PRB3 (11715151_x_at) / Fold change /veh PRB3 (11715151_x_at) / RFU TUBB4B (11761932_at) / Fold change /veh TUBB4B (11761932_at) / RFU CAPN14 (11732068_a_at) / Fold change /veh CAPN14 (11732068_a_at) / RFU TMCC2 (11721928_a_at) / Fold change /veh TMCC2 (11721928_a_at) / RFU IRGQ (11745062_a_at) / Fold change /veh IRGQ (11745062_a_at) / RFU FAM174B (11720279_a_at) / Fold change /veh FAM174B (11720279_a_at) / RFU TMPRSS4 (11748680_a_at) / Fold change /veh TMPRSS4 (11748680_a_at) / RFU FAM212B (11763350_a_at) / Fold change /veh FAM212B (11763350_a_at) / RFU PLEKHG5 (11743358_a_at) / Fold change /veh PLEKHG5 (11743358_a_at) / RFU ZSCAN30 (11745921_a_at) / Fold change /veh ZSCAN30 (11745921_a_at) / RFU CMKLR1 (11741424_a_at) / Fold change /veh CMKLR1 (11741424_a_at) / RFU LOC101060620 /// MAPK8IP1 (11723275_at) / Fold change /veh LOC101060620 /// MAPK8IP1 (11723275_at) / RFU SPTSSB (11747773_x_at) / Fold change /veh SPTSSB (11747773_x_at) / RFU PRSS12 (11739890_at) / Fold change /veh PRSS12 (11739890_at) / RFU BIN1 (11741810_x_at) / Fold change /veh BIN1 (11741810_x_at) / RFU WNT11 (11732464_a_at) / Fold change /veh WNT11 (11732464_a_at) / RFU C10orf10 (11716521_a_at) / Fold change /veh C10orf10 (11716521_a_at) / RFU C5orf56 (11738089_at) / Fold change /veh C5orf56 (11738089_at) / RFU CYB561 (11721691_x_at) / Fold change /veh CYB561 (11721691_x_at) / RFU ANKRD19P (11752326_a_at) / Fold change /veh ANKRD19P (11752326_a_at) / RFU OR2T12 /// OR2T33 /// OR2T8 (11738714_s_at) / Fold change /veh OR2T12 /// OR2T33 /// OR2T8 (11738714_s_at) / RFU VCAN (11748164_a_at) / Fold change /veh VCAN (11748164_a_at) / RFU JSRP1 (11732532_at) / Fold change /veh JSRP1 (11732532_at) / RFU KRTAP10-11 (11738290_x_at) / Fold change /veh KRTAP10-11 (11738290_x_at) / RFU MYO3A (11730013_a_at) / Fold change /veh MYO3A (11730013_a_at) / RFU EBF3 (11725865_a_at) / Fold change /veh EBF3 (11725865_a_at) / RFU CAMK2N1 (11719241_x_at) / Fold change /veh CAMK2N1 (11719241_x_at) / RFU C5orf56 (11738088_a_at) / Fold change /veh C5orf56 (11738088_a_at) / RFU OLFML3 (11715873_a_at) / Fold change /veh OLFML3 (11715873_a_at) / RFU LOC100653217 /// NTM (11731650_a_at) / Fold change /veh LOC100653217 /// NTM (11731650_a_at) / RFU MAPK11 (11762145_a_at) / Fold change /veh MAPK11 (11762145_a_at) / RFU FIZ1 (11724087_x_at) / Fold change /veh FIZ1 (11724087_x_at) / RFU OASL (11726364_x_at) / Fold change /veh OASL (11726364_x_at) / RFU SOX15 (11748057_x_at) / Fold change /veh SOX15 (11748057_x_at) / RFU CD79A (11719716_a_at) / Fold change /veh CD79A (11719716_a_at) / RFU HIST1H1D (11736915_at) / Fold change /veh HIST1H1D (11736915_at) / RFU CASKIN2 (11723855_a_at) / Fold change /veh CASKIN2 (11723855_a_at) / RFU LOC730098 (11760151_x_at) / Fold change /veh LOC730098 (11760151_x_at) / RFU OR4N2 (11742367_at) / Fold change /veh OR4N2 (11742367_at) / RFU PRRT2 (11749266_a_at) / Fold change /veh PRRT2 (11749266_a_at) / RFU SNX32 (11753110_a_at) / Fold change /veh SNX32 (11753110_a_at) / RFU CDHR5 (11726645_a_at) / Fold change /veh CDHR5 (11726645_a_at) / RFU RCAN1 (11760418_a_at) / Fold change /veh RCAN1 (11760418_a_at) / RFU FAM167A (11723789_a_at) / Fold change /veh FAM167A (11723789_a_at) / RFU FAM26E (11764081_at) / Fold change /veh FAM26E (11764081_at) / RFU ISYNA1 (11749810_s_at) / Fold change /veh ISYNA1 (11749810_s_at) / RFU ACY1 (11761880_at) / Fold change /veh ACY1 (11761880_at) / RFU 11764098_at / Fold change /veh 11764098_at / RFU SAMD14 (11745864_x_at) / Fold change /veh SAMD14 (11745864_x_at) / RFU NPB (11741838_a_at) / Fold change /veh NPB (11741838_a_at) / RFU TMPRSS6 (11731388_a_at) / Fold change /veh TMPRSS6 (11731388_a_at) / RFU KRTAP10-2 (11738614_at) / Fold change /veh KRTAP10-2 (11738614_at) / RFU ARHGAP8 /// PRR5-ARHGAP8 (11727945_x_at) / Fold change /veh ARHGAP8 /// PRR5-ARHGAP8 (11727945_x_at) / RFU KRTAP5-7 /// NADSYN1 (11734609_at) / Fold change /veh KRTAP5-7 /// NADSYN1 (11734609_at) / RFU RASL12 (11751679_a_at) / Fold change /veh RASL12 (11751679_a_at) / RFU CDKN2B (11736163_a_at) / Fold change /veh CDKN2B (11736163_a_at) / RFU PRF1 (11729649_at) / Fold change /veh PRF1 (11729649_at) / RFU, ZNF638 /// ZNF638-IT1 / Fold change vs veh, ZNF638 /// ZNF638-IT1 / RFU, PANK3 / Fold change vs veh, PANK3 / RFU, SH3YL1 / Fold change vs veh, SH3YL1 / RFU, ZEB2 / Fold change vs veh, ZEB2 / RFU, NRIP1 / Fold change vs veh, NRIP1 / RFU, PTTG1IP / Fold change vs veh, PTTG1IP / RFU, CAPN2 / Fold change vs veh, CAPN2 / RFU, MED14 / Fold change vs veh, MED14 / RFU, SNORA58 / Fold change vs veh, SNORA58 / RFU, C1orf63 / Fold change vs veh, C1orf63 / RFU, LRRFIP1 / Fold change vs veh, LRRFIP1 / RFU, NDUFAF7 / Fold change vs veh, NDUFAF7 / RFU, SLC12A2 / Fold change vs veh, SLC12A2 / RFU, IBTK / Fold change vs veh, IBTK / RFU, ESF1 / Fold change vs veh, ESF1 / Fold change vs veh, TMEM50B / RFU, TAOK1 / Fold change vs veh, TAOK1 / RFU, ACBD3 / Fold change vs veh, ACBD3 / RFU, TMA16 / Fold change vs veh, TMA16 / RFU, RWDD3 / Fold change vs veh, RWDD3 / RFU, BCAT1 / Fold change vs veh, BCAT1 / RFU, EDEM3 / Fold change vs veh, EDEM3 / RFU, TMEM33 / Fold change vs veh, TMEM33 / RFU, WDR75 / Fold change vs veh, WDR75 / RFU, AHCTF1 / Fold change vs veh, AHCTF1 / RFU, TFRC / Fold change vs veh, TFRC / RFU, ZDHHC17 / Fold change vs veh, ZDHHC17 / RFU, NOM1 / Fold change vs veh, NOM1 / RFU, ARL8B / Fold change vs veh, ARL8B / RFU, ZBTB11 / Fold change vs veh, ZBTB11 / RFU, TAMM41 / Fold change vs veh, TAMM41 / RFU, KIAA1704 /// LOC100996395 / Fold change vs veh, KIAA1704 /// LOC100996395 / RFU, ING1 / Fold change vs veh, ING1 / RFU, TRMT61B / Fold change vs veh, TRMT61B / RFU, FUBP3 / Fold change vs veh, FUBP3 / RFU, TP53 / Fold change vs veh, TP53 / RFU, TNKS2 / Fold change vs veh, TNKS2 / RFU, ZFP14 / Fold change vs veh, ZFP14 / RFU, ACTR2 / Fold change vs veh, ACTR2 / RFU, PPP3R1 / Fold change vs veh, PPP3R1 / RFU, PIK3R1 / Fold change vs veh, PIK3R1 / RFU, HNRNPA1 / Fold change vs veh, HNRNPA1 / RFU, RNF170 / Fold change vs veh, RNF170 / RFU, ZNF28 / Fold change vs veh, ZNF28 / RFU, RNGTT / Fold change vs veh, RNGTT / RFU, OGT / Fold change vs veh, OGT / RFU, BRD1 / Fold change vs veh, BRD1 / RFU, MARS / Fold change vs veh, MARS / RFU, ZNF655 / Fold change vs veh, ZNF655 / RFU, FAHD1 / Fold change vs veh, FAHD1 / RFU, BDP1 / Fold change vs veh, BDP1 / RFU, LRRCC1 / Fold change vs veh, LRRCC1 / RFU, ARID1A / Fold change vs veh, ARID1A / RFU, ZNF146 / Fold change vs veh, ZNF146 / RFU, ZNF330 / Fold change vs veh, ZNF330 / RFU, GPN3 / Fold change vs veh, GPN3 / RFU, C9orf123 / Fold change vs veh, C9orf123 / RFU, N4BP2L2 / Fold change vs veh, N4BP2L2 / RFU, ARFIP1 / Fold change vs veh, ARFIP1 / RFU, FAM179B / Fold change vs veh, FAM179B / RFU, BCL10 / Fold change vs veh, BCL10 / RFU, UHRF1BP1L / Fold change vs veh, UHRF1BP1L / RFU, BET1 / Fold change vs veh, BET1 / RFU, CNOT2 / Fold change vs veh, CNOT2 / RFU, ZNF268 / Fold change vs veh, ZNF268 / Fold change vs veh, ZNF507 / RFU, DGCR2 / Fold change vs veh, DGCR2 / RFU, WDSUB1 / Fold change vs veh, WDSUB1 / Fold change vs veh, HSP90B1 /// MIR3652 / RFU, ADSS / Fold change vs veh, ADSS / RFU, GK / Fold change vs veh, GK / RFU, ZNF148 / Fold change vs veh, ZNF148 / RFU, TAF9 / Fold change vs veh, TAF9 / RFU, SLC1A5 / Fold change vs veh, SLC1A5 / RFU, SLMO2 / Fold change vs veh, SLMO2 / RFU, ABCC4 / Fold change vs veh, ABCC4 / RFU, LOC101060439 /// RAP1B / Fold change vs veh, LOC101060439 /// RAP1B / RFU, RFX7 / Fold change vs veh, RFX7 / RFU, GTPBP10 / Fold change vs veh, GTPBP10 / RFU, CNEP1R1 / Fold change vs veh, CNEP1R1 / RFU, BIVM-ERCC5 /// ERCC5 / Fold change vs veh, BIVM-ERCC5 /// ERCC5 / RFU, ILF3 / Fold change vs veh, ILF3 / RFU 11762660_at / Fold change /veh 11762660_at / RFU VCAN (11757783_s_at) / Fold change /veh VCAN (11757783_s_at) / RFU DDX43 (11728927_at) / Fold change /veh DDX43 (11728927_at) / RFU KRT8 (11758188_x_at) / Fold change /veh KRT8 (11758188_x_at) / RFU NKD1 (11759106_at) / Fold change /veh NKD1 (11759106_at) / RFU SRD5A1 (11742802_a_at) / Fold change /veh SRD5A1 (11742802_a_at) / RFU TPSAB1 /// TPSB2 (11721975_s_at) / Fold change /veh TPSAB1 /// TPSB2 (11721975_s_at) / RFU GSTM3 (11746129_a_at) / Fold change /veh GSTM3 (11746129_a_at) / RFU IL23R (11737362_x_at) / Fold change /veh IL23R (11737362_x_at) / RFU TMEM51 (11727254_a_at) / Fold change /veh TMEM51 (11727254_a_at) / RFU PIWIL2 (11732686_x_at) / Fold change /veh PIWIL2 (11732686_x_at) / RFU ORM1 (11744905_x_at) / Fold change /veh ORM1 (11744905_x_at) / RFU CCDC152 (11743942_at) / Fold change /veh CCDC152 (11743942_at) / RFU ECM1 (11717891_a_at) / Fold change /veh ECM1 (11717891_a_at) / RFU IL23R (11748794_a_at) / Fold change /veh IL23R (11748794_a_at) / RFU TNFAIP8L3 (11732012_x_at) / Fold change /veh TNFAIP8L3 (11732012_x_at) / RFU MBOAT4 (11741988_at) / Fold change /veh MBOAT4 (11741988_at) / RFU 11764193_at / Fold change /veh 11764193_at / RFU TMEM53 (11763286_at) / Fold change /veh TMEM53 (11763286_at) / RFU MAGEB2 (11727129_at) / Fold change /veh MAGEB2 (11727129_at) / RFU TMEM200A (11744735_a_at) / Fold change /veh TMEM200A (11744735_a_at) / RFU CCDC152 (11751479_a_at) / Fold change /veh CCDC152 (11751479_a_at) / RFU FAM211A (11726209_a_at) / Fold change /veh FAM211A (11726209_a_at) / RFU RGS16 (11746705_a_at) / Fold change /veh RGS16 (11746705_a_at) / RFU VCAN (11755009_s_at) / Fold change /veh VCAN (11755009_s_at) / RFU RHOB (11743442_s_at) / Fold change /veh RHOB (11743442_s_at) / RFU RGS16 (11720943_a_at) / Fold change /veh RGS16 (11720943_a_at) / RFU RGS16 (11720944_at) / Fold change /veh RGS16 (11720944_at) / RFU, VPS4B / Fold change vs veh, VPS4B / RFU, CREB1 / Fold change vs veh, CREB1 / RFU, DNAJC13 / Fold change vs veh, DNAJC13 / RFU, GNAQ / Fold change vs veh, GNAQ / RFU, CDK5R1 / Fold change vs veh, CDK5R1 / RFU, ZRANB3 / Fold change vs veh, ZRANB3 / RFU, CUL4A / Fold change vs veh, CUL4A / RFU, CCNY / Fold change vs veh, CCNY / RFU, UFL1 / Fold change vs veh, UFL1 / RFU, COG3 / Fold change vs veh, COG3 / RFU, DIAPH2 / Fold change vs veh, DIAPH2 / RFU, SKA2 / Fold change vs veh, SKA2 / RFU, AFF3 / Fold change vs veh, AFF3 / RFU, LMF1 / Fold change vs veh, LMF1 / RFU, IPO11 / Fold change vs veh, IPO11 / RFU, DFFB / Fold change vs veh, DFFB / RFU, FOXP1 / Fold change vs veh, FOXP1 / RFU, CARD8 / Fold change vs veh, CARD8 / RFU, STRN3 / Fold change vs veh, STRN3 / RFU, ADK / Fold change vs veh, ADK / RFU, RASSF2 / Fold change vs veh, RASSF2 / RFU, WIPF1 / Fold change vs veh, WIPF1 / RFU, LARP1B / Fold change vs veh, LARP1B / RFU, RASA1 / Fold change vs veh, RASA1 / RFU, RB1 / Fold change vs veh, RB1 / RFU, PPFIA1 / Fold change vs veh, PPFIA1 / RFU, MAT2A / Fold change vs veh, MAT2A / RFU, CCT5 / Fold change vs veh, CCT5 / RFU, WDR92 / Fold change vs veh, WDR92 / RFU, CUX1 / Fold change vs veh, CUX1 / RFU, TTC7A / Fold change vs veh, TTC7A / RFU, TMEM135 / Fold change vs veh, TMEM135 / RFU, DEPTOR / Fold change vs veh, DEPTOR / RFU, CPM / Fold change vs veh, CPM / RFU, DNAJB6 / Fold change vs veh, DNAJB6 / RFU, CACNA2D3 / Fold change vs veh, CACNA2D3 / RFU, DTX4 / Fold change vs veh, DTX4 / RFU, TFCP2 / Fold change vs veh, TFCP2 / RFU, GMCL1 /// GMCL1P1 / Fold change vs veh, GMCL1 /// GMCL1P1 / RFU, AEBP2 / Fold change vs veh, AEBP2 / RFU, SNHG1 /// SNORD22 /// SNORD25 /// SNORD26 /// SNORD27 /// SNORD28 /// SNORD29 /// SNORD31 / Fold change vs veh, SNHG1 /// SNORD22 /// SNORD25 /// SNORD26 /// SNORD27 /// SNORD28 /// SNORD29 /// SNORD31 / Fold change (Aza/veh), C12orf56 (ProbeSet 11735607_a_at) / Fold change (ACY-1035/veh), C12orf56 (ProbeSet 11735607_a_at) / Fold change (Aza/veh), FGFR1OP (ProbeSet 11751329_s_at) / Fold change (ACY-1035/veh), FGFR1OP (ProbeSet 11751329_s_at) / Fold change (Aza/veh), VPS36 (ProbeSet 11739960_a_at) / Fold change (ACY-1035/veh), VPS36 (ProbeSet 11739960_a_at) / RFU SYPL1 (11715823_x_at) / Fold change /veh SYPL1 (11715823_x_at) / RFU IGFBP7 (11715501_s_at) / Fold change /veh IGFBP7 (11715501_s_at) / RFU REEP3 (11722064_at) / Fold change /veh REEP3 (11722064_at) / RFU IGLL1 (11728026_x_at) / Fold change /veh IGLL1 (11728026_x_at): dose or concentration left out as unconfirmed",
  "conditions": "MV-4-11 cells, 48 hours",
  "data": [
    {"molecule": "Nc1ccc(-c2cccs2)cc1NC(=O)c1ccc2c(c1)cc(C1CC1)n2CCN1CCOCC1", "note": "[ACY-1035]", "values": [
      {"measurement": "Fold change /veh FAM167A (11723789_a_at)", "result": 1.14}
    ]}
  ]
}
